# Test results published in ChEMBL document CHEMBL5252606, “Isolation and Characterization of Anti-Mycobacterial Natural Products from a Petrosia sp. Marine Sponge” (J Nat Prod, 2023).
# The source made the active and inactive calls. The calls are words filed in the database; no cut-off is given here.
# Assays:
# [1] = system: Mycobacterium tuberculosis; experiment: Antitubercular activity against Mycobacterium tuberculosis H37Rv assessed as inhibition of bacterial growth at 25 ug/ml by alamar blue assay; assay type: functional, organism-based; settings: dose 25.0 µg/ml
# [2] = system: Mycobacterium tuberculosis; experiment: Antitubercular activity against Mycobacterium tuberculosis expressing luxCDABE operon assessed as inhibition of bacterial growth under hypoxic conditions by low oxygen recovery assay; assay type: functional
# [3] = system: Mycobacterium tuberculosis; experiment: Antitubercular activity against Mycobacterium tuberculosis H37Rv assessed as inhibition of bacterial growth by alamar blue assay; assay type: functional
# [4] = system: P388; experiment: Cytotoxicity against mouse P388 cells; assay type: functional, cell-based
# [5] = system: Mycobacteroides abscessus; experiment: Antitubercular activity against Mycobacterium abscessus ATCC 19977 assessed as inhibition of bacterial growth incubated for 4 hrs by resazurin based fluorescence assay; assay type: functional, organism-based
# [6] = system: HCT-8; experiment: Cytotoxicity against human HCT-8 cells; assay type: functional, cell-based
# [7] = system: HeLa; experiment: Cytotoxicity against human HeLa cells; assay type: functional, cell-based
# [8] = system: MCF7; experiment: Cytotoxicity against human MCF7 cells; assay type: functional, cell-based
# [9] = Cytotoxicity against African green monkey Vero cells assessed as inhibition of cell growth incubated for 3 days by resazurin based fluorescence assay; assay type: toxicity; settings: African green monkey (Chlorocebus sabaeus)
# [10] = system: A549; experiment: Cytotoxicity against human A549 cells; assay type: functional, cell-based
# [11] = system: Mycobacterium avium; experiment: Antitubercular activity against Mycobacterium avium ATCC 15769 assessed as inhibition of bacterial growth incubated for 24 hrs by resazurin based fluorescence assay; assay type: functional, organism-based
Compound,Activity [1],MIC [2],MIC [3],also measured
COc1ccc2c(c1)C[C@H]1[C@]3(C)CC[C@@H]4[C@]5(CCC[C@@]4(C)C(=O)OC5)[C@H]3CC[C@]1(C)O2,inactive,,,
O=[N+]([O-])c1cn2c(n1)OC[C@@H](OCc1ccc(OC(F)(F)F)cc1)C2 [PRETOMANID],,2 µM,0.2 µM,
COc1ccc2c(c1)C[C@H]1[C@]3(C)CC[C@H]4[C@@]5(C)CCC[C@]4(CO[C@@H]5O)[C@H]3CC[C@]1(C)O2,inactive,,,
C[C@]12CCC[C@](C)(C(=O)O)[C@@H]1CC[C@]1(C)[C@@H]2CC[C@]2(C)Oc3ccc(O)cc3C[C@@H]12,inactive,,,
CO[C@H]1/C=C/O[C@@]2(C)Oc3c(C)c(O)c4c(O)c(c(/C=N/N5CCN(C)CC5)c(O)c4c3C2=O)NC(=O)/C(C)=C\C=C\[C@H](C)[C@H](O)[C@@H](C)[C@@H](O)[C@@H](C)[C@H](OC(C)=O)[C@@H]1C [RIFAMPIN],,0.09 µM,0.04 µM,
COc1nc2ccc(Br)cc2cc1[C@@H](c1ccccc1)[C@@](O)(CCN(C)C)c1cccc2ccccc12 [BEDAQUILINE],,0.1 µM,0.03 µM,
C#CC(O)/C=C/CCCCCCCCC/C=C\CCCCCCCCC/C=C/C(O)C#C (configuration not stated),,1 µM,1.4 µM,IC50 [4]: 0.2 µM; Activity [5]: inactive; IC50 [6]: 0.2 µM; IC50 [7]: 0.2 µM; IC50 [8]: 0.2 µM; IC50 at 3 days [9]: 0.4 µM; IC50 [10]: 0.2 µM; Activity [11]: inactive
CCO[C@@H]1OC[C@]23CCC[C@]1(C)[C@@H]2CC[C@]1(C)[C@@H]3CC[C@]2(C)Oc3ccc(OC)cc3C[C@@H]12,inactive,,,
C[C@]12CCC[C@](C)(C=O)[C@@H]1CC[C@]1(C)[C@@H]2CC[C@]2(C)Oc3ccc(O)cc3C[C@@H]12,inactive,,,
COc1ccc2c(c1)C[C@H]1[C@]3(C)CC[C@H]4[C@@]5(C)CCC[C@]4(CO[C@H]5O)[C@H]3CC[C@]1(C)O2,inactive,,,
NNC(=O)c1ccncc1 [ISONIAZID],,> 128 µM,0.2 µM,
CC(=O)NC[C@H]1CN(c2ccc(N3CCOCC3)c(F)c2)C(=O)O1 [LINEZOLID],,1.7 µM,1 µM,
COc1ccc2c(c1)C[C@H]1[C@]3(C)CC[C@@H]4[C@](C)(CCC[C@]4(C)C(=O)O)[C@H]3CC[C@]1(C)O2,inactive,,,
